Source: patent US6080771A, “DC107 derivatives” (Kyowa Hakko Kogyo Co., Ltd., priority 1996, dated 2000)
≈ marks a conversion by molar mass, not a printed value. Read-outs that look alike come from different tables or passages of the source.

How the values were obtained:
[1] = tested on: Staphylococcus aureus ATCC 6538P; assay: Antimicrobial activity, agar dilution method (MIC), SA; type: cell-based; settings: ATCC6538P, pH 7, read-out: MIC, SA
Text: | SA: Staphylococcus aureus ATCC 6538P

[2] = tested on: Bacillus substilis NO. 10707; assay: Antimicrobial activity, agar dilution method (MIC), BS; type: cell-based
Text: | BS: Bacillus substilis NO. 10707

[3] = tested on: Klebisiella pneumoniae ATCC 10031; assay: Antimicrobial activity, agar dilution method (MIC), KP; type: cell-based
Text: | KP: Klebisiella pneumoniae ATCC 10031

[4] = tested on: Escherichia coli ATCC 26; assay: Antimicrobial activity, agar dilution method (MIC), EC; type: cell-based
Text: | EC: Escherichia coli ATCC 26

[5] = tested on: HeLa S3 cells; assay: HeLa S3 cell growth inhibition test (Neutral Red); type: cell-based; settings: Homo sapiens, read-out: HeLa S3 Cell Growth Inhibition Activity, IC50
Experimental: In each well of a 96-well microtiter plate was placed 0.1 mL of HeLa S3 cells having a concentration of 8×10^3 cells/mL and prepared in an MEM culture medium containing 10% fetal bovine serum and 2 mM glutamine. After the cells were incubated overnight at 37° C. in a carbon dioxide incubator, a test compound suitably diluted with a medium was added to the wells in an amount of 0.05 mL for each well. The cells were incubated at 37° C. for 72 hours in a carbon dioxide incubator. After the culture supernatant was removed, 0.1 mL of a culture medium containing 0.02% Neutral Red was added to each well. The cells were then incubated at 37° C. for 1 hour in a carbon dioxide incubator to dye the cells. After the culture supernatant was removed, each residue was rinsed once with physiological saline and the pigment was extracted with 0.001N hydrochloric acid/30% ethanol. The absorbance at 550 nm of each extract was measured with a microplate reader. The drug concentration required for the 50% inhibition of cell growth, which is referred to as IC50, was calculated by comparing the absorbance for untreated cells with those for cells treated with the drug in known concentrations.

[6] = tested on: Sarcoma 180 mouse solid tumor; assay: Antitumor activity against Sarcoma 180 mouse solid tumor; type: in vivo, male ddY mice; settings: Sarcoma-180, iv, 168 h, single i.v., tumor volume on day 7 from transplant, read-out: T/C (tumor volume ratio treated/control)
Experimental: To a ddY mouse were intraperitoneally transplanted 5×10^6 sarcoma 180 cells. On the seventh day from the transplant, the cells were collected from the ascites, washed once with sterilized physiological saline, and then diluted with sterilized physiological saline to prepare a cell suspension having a concentration of 5×10^7 cells/mL. This suspension was transplanted in an amount of 0.01 mL to a subcutaneous part of the right axilla of each of male ddY mice each weighing 20±1 g.
A test compound was dissolved in physiological saline containing polyoxyethylene sorbitan monolaurate. At 24 hours after the tumor transplant, 0.2 mL of the solution was intravenously administered to the tail of each of a group of five mice.

[7] = tested on: Enterococcus hirae ATCC 10541; assay: Antimicrobial activity, agar dilution method (MIC), EH; settings: pH 7
Experimental: Antimicrobial activity was determined by the agar dilution method using a culture medium (pH 7) prepared by dissolving 3 g of Bacto-Tryptone (manufactured by Difco, Co.), 3 g of meat extract, 1 g of yeast extract, 1 g of glucose, and 16 g of agar in 1 l of water.
EH: Enterococcus hirae ATCC 10541

[8] = NO.10707, agar dilution, pH 7, read-out: MIC, BS
[9] = agar dilution, pH 7, read-out: MIC, KP
[10] = ATCC26, pH 7, read-out: MIC, EC
[11] = NO.10707, pH 7, read-out: MIC, BS
[12] = ATCC26, agar dilution, pH 7, read-out: MIC, EC

Compound	MIC ([1]; agar dilution) [µg/mL]	MIC [2, 8] [µg/mL]	MIC [3, 9] [µg/mL]	response vs control in vivo at 8 mg/kg [6] [%]	MIC, EH [7] [µg/mL]	other results
COCCOCCOCCOCCOCCOCC(=O)OC1/C=C(\C)CCC2(CC(=O)NC(C)c3nc(cs3)/C=C\C=C\C1=O)[S+]([O-])SC(=O)C2(C)O (stereo not drawn) [Compound 5]	0.4 (≈ 0.498 µM)	0.2 (≈ 0.249 µM)	0.39 (≈ 0.486 µM)	30	0.20 (≈ 0.249 µM)	MIC [4, 10]: 3.1 µg/mL (≈ 3.86 µM); IC50 ([5]; HeLa S3, 72 h): 67 nM
C/C1=C\C(OC(=O)COCCOCCO)C(=O)/C=C/C=C\c2csc(n2)C(C)NC(=O)CC2(CC1)[S+]([O-])SC(=O)C2(C)O (stereo not drawn) [Compound 8]	0.13 (≈ 0.198 µM)	0.13 (≈ 0.198 µM)	0.13 (≈ 0.198 µM)		0.13 (≈ 0.198 µM)	MIC [4, 10]: 2.1 µg/mL (≈ 3.2 µM); response vs control in vivo at 4 mg/kg [6]: 36%
COCCOCCOC(C)(C)C(=O)OC1/C=C(\C)CCC2(CC(=O)NC(C)c3nc(cs3)/C=C\C=C\C1=O)[S+]([O-])SC(=O)C2(C)O (stereo not drawn) [Compound 10]	0.081 (≈ 0.116 µM)	0.041 (≈ 0.0587 µM)	0.65 (≈ 0.93 µM)		0.081 (≈ 0.116 µM)	MIC [4, 10]: 0.65 µg/mL (≈ 0.93 µM)
COCCOCC(=O)OC1/C=C(\C)CCC2(C(C)(O)C(=O)SCc3oc(=O)oc3C)CC(=O)N(C(C)c3nc(cs3)/C=C\C=C\C1=O)[S+]2[O-] (stereo not drawn) [Compound 11]						IC50 ([5]; HeLa S3, 72 hours, 37° C.): 30 nM
COCCOCCOCCOCC(=O)OC1/C=C(\C)CCC2(C(C)(O)C(=O)SCc3oc(=O)oc3C)CC(=O)N(C(C)c3nc(cs3)/C=C\C=C\C1=O)[S+]2[O-] (stereo not drawn) [Compound 13]				39		
C/C1=C\C(OC(=O)COCCOCCO)C(=O)/C=C/C=C\c2csc(n2)C(C)N2C(=O)CC(C(C)(O)C(=O)SCc3oc(=O)oc3C)(CC1)[S+]2[O-] (stereo not drawn) [Compound 17]				37	1.8 (≈ 2.34 µM)	MIC [1]: 1.8 µg/mL (≈ 2.34 µM); MIC [2, 11]: 1.82 µg/mL (≈ 2.37 µM); MIC ([3]; pH 7, read-out: MIC, KP): 1.8 µg/mL (≈ 2.34 µM)
COCCOCCOCCOCCOCCOCC(=O)OC1/C=C(\C)CCC2(C(C)(O)C(=O)SCC3=C(C)OC(C)(C)OC3=O)CC(=O)N(C(C)c3nc(cs3)/C=C\C=C\C1=O)[S+]2[O-] (stereo not drawn) [Compound 21]						response vs control in vivo at 16 mg/kg ([6]; 16 mg/kg): 45%
COCCOCCOCC(=O)OC1/C=C(\C)CCC2(C(C)(O)C(=O)SCOC(=O)CC[C@H](NC(=O)OC(C)(C)C)C(=O)OC(C)(C)C)CC(=O)N(C(C)c3nc(cs3)/C=C\C=C\C1=O)[S+]2[O-] (stereo partly drawn) [Compound 23]				48		IC50 ([5]; HeLa S3, 72 hours, 37° C.): 43 nM
COCCOCCOCCOCCOCCOCC(=O)OC1/C=C(\C)CCC2(C(C)(O)C(=O)SCOC(=O)CNC(=O)OC(C)(C)C)CC(=O)N(C(C)c3nc(cs3)/C=C\C=C\C1=O)[S+]2[O-] (stereo not drawn) [Compound 24]						IC50 ([5]; HeLa S3, 72 hours, 37° C.): 21 nM
C/C1=C\C(OC(=O)COCCOCCOCCOCCO)C(=O)/C=C/C=C\c2csc(n2)C(C)NC(=O)CC2(CC1)[S+]([O-])SC(=O)C2(C)O (stereo not drawn) [Compound 27]	0.13 (≈ 0.175 µM)	0.13 (≈ 0.175 µM)	0.065 (≈ 0.0873 µM)	18	0.065 (≈ 0.0873 µM)	MIC [4, 10]: 16.7 µg/mL (≈ 22.4 µM)
COCCOCCOCC(=O)OC1/C=C(\C)CCC2(C(C)(O)C(=O)SCOC(=O)CC[C@H](NC(=O)[C@@]34O[C@H]5COC(C)(C)O[C@H]5[C@@H]3OC(C)(C)O4)C(=O)OC)CC(=O)N(C(C)c3nc(cs3)/C=C\C=C\C1=O)[S+]2[O-] (stereo partly drawn) [Compound 28]				31		
COCCOCCOCC(=O)OC1/C=C(\C)CCC2(C(C)(O)C(=O)SCOC(=O)CC[C@H](NC(=O)C3(C)COC(C)(C)OC3)C(=O)OC)CC(=O)N(C(C)c3nc(cs3)/C=C\C=C\C1=O)[S+]2[O-] (stereo partly drawn) [Compound 29]				47		
COCCOCCOCC(=O)OCCOCCOCC(=O)OC1/C=C(\C)CCC2(CC(=O)NC(C)c3nc(cs3)/C=C\C=C\C1=O)[S+]([O-])SC(=O)C2(C)O (stereo not drawn) [Compound 30]						response vs control in vivo at 4 mg/kg [6]: 43%
COCCOCC(=O)OCCOCCOCC(=O)OC1/C=C(\C)CCC2(CC(=O)NC(C)c3nc(cs3)/C=C\C=C\C1=O)[S+]([O-])SC(=O)C2(C)O (stereo not drawn) [Compound 31]	0.11 (≈ 0.142 µM)	0.057 (≈ 0.0737 µM)	0.057 (≈ 0.0737 µM)	12	0.11 (≈ 0.142 µM)	MIC [4, 10]: 3.65 µg/mL (≈ 4.72 µM)
C/C1=C\C(OC(=O)COCCCO)C(=O)/C=C/C=C\c2csc(n2)C(C)NC(=O)CC2(CC1)[S+]([O-])SC(=O)C2(C)O (stereo not drawn) [Compound 33]	0.13 (≈ 0.207 µM)	0.065 (≈ 0.104 µM)	0.13 (≈ 0.207 µM)		0.065 (≈ 0.104 µM)	MIC [4, 12]: 1 µg/mL (≈ 1.6 µM); response vs control in vivo at 2 mg/kg [6]: 36%
C/C1=C\C(OC(=O)COCCCCO)C(=O)/C=C/C=C\c2csc(n2)C(C)NC(=O)CC2(CC1)[S+]([O-])SC(=O)C2(C)O (stereo not drawn) [Compound 35]	0.098 (≈ 0.153 µM)	0.2 (≈ 0.312 µM)	0.098 (≈ 0.153 µM)		0.098 (≈ 0.153 µM)	MIC [4, 10]: 1.6 µg/mL (≈ 2.5 µM); response vs control in vivo at 4 mg/kg [6]: 22%
C/C1=C\C(OC(=O)COCCOCCOCCOCCO)C(=O)/C=C/C=C\c2csc(n2)C(C)N2C(=O)CC(C(C)(O)C(=O)SCc3oc(=O)oc3C)(CC1)[S+]2[O-] (stereo not drawn) [Compound 38]				43	1.8 (≈ 2.1 µM)	MIC [1]: 3.7 µg/mL (≈ 4.32 µM); MIC [2, 11]: 1.8 µg/mL (≈ 2.1 µM); MIC ([3]; pH 7, read-out: MIC, KP): 1.8 µg/mL (≈ 2.1 µM)
COCCOCCOCC(=O)OC1/C=C(\C)CCC2(C(C)(O)C(=O)SCOC(=O)OCCN3CCCC3=O)CC(=O)N(C(C)c3nc(cs3)/C=C\C=C\C1=O)[S+]2[O-] (stereo not drawn) [Compound 44]						response vs control in vivo at 2 mg/kg [6]: 43%
COCCOCCOCC(=O)OC1/C=C(\C)CCC2(C(C)(O)C(=O)SCOC(=O)OCCOCCOC)CC(=O)N(C(C)c3nc(cs3)/C=C\C=C\C1=O)[S+]2[O-] (stereo not drawn) [Compound 45]						response vs control in vivo at 4 mg/kg [6]: 45%
COCCOCCOCC(=O)OC1/C=C(\C)CCC2(C(C)(O)C(=O)SCOC(=O)COCCOCCO)CC(=O)N(C(C)c3nc(cs3)/C=C\C=C\C1=O)[S+]2[O-] (stereo not drawn) [Compound 47]				40		
CC(=O)OCC1OC(OC2C=C(C)CCC3(CC(=O)NC(C)c4nc(cs4)C=CC=CC2=O)[S+]([O-])SC(=O)C3(C)O)C=CC1OC(C)=O (stereo not drawn) [Compound 50]	0.02 (≈ 0.0277 µM)	0.02 (≈ 0.0277 µM)	0.16 (≈ 0.221 µM)		0.020 (≈ 0.0277 µM)	MIC [4, 12]: 0.16 µg/mL (≈ 0.221 µM); IC50 ([5]; HeLa S3, 72 hours, 37° C.): 3.5 nM
CC(=O)OC[C@H]1OC(OC2/C=C(\C)CCC3(CC(=O)NC(C)c4nc(cs4)/C=C\C=C\C2=O)[S+]([O-])SC(=O)C3(C)O)C[C@@H](OC(C)=O)[C@@H]1OC(C)=O (stereo partly drawn) [Compound 53]	0.098 (≈ 0.125 µM)	0.098 (≈ 0.125 µM)	1.6 (≈ 2.04 µM)		0.20 (≈ 0.255 µM)	MIC [4, 10]: 25 µg/mL (≈ 31.9 µM); IC50 ([5]; HeLa S3, 72 h): 16 nM
CC(=O)O[C@@H]1C=CC(OC2/C=C(\C)CCC3(CC(=O)NC(C)c4nc(cs4)/C=C\C=C\C2=O)[S+]([O-])SC(=O)C3(C)O)O[C@H]1C (stereo partly drawn) [Compound 57]	0.13 (≈ 0.196 µM)	0.033 (≈ 0.0496 µM)	0.26 (≈ 0.391 µM)		0.13 (≈ 0.196 µM)	MIC [4, 10]: 0.52 µg/mL (≈ 0.782 µM); IC50 ([5]; HeLa S3, 72 h): 16 nM
CC(=O)O[C@H]1[C@H](C)OC(OC2/C=C(\C)CCC3(C(C)(O)C(=O)SCc4oc(=O)oc4C)CC(=O)N(C(C)c4nc(cs4)/C=C\C=C\C2=O)[S+]3[O-])C[C@@H]1OC(C)=O (stereo partly drawn) [Compound 66]						IC50 ([5]; HeLa S3, 72 hours, 37° C.): 6.1 nM; response vs control in vivo at 4 mg/kg [6]: 47%
C/C1=C\C(OC2C=C[C@@H](O)[C@H](C)O2)C(=O)/C=C/C=C\c2csc(n2)C(C)N2C(=O)CC(C(C)(O)C(=O)SCc3oc(=O)oc3C)(CC1)[S+]2[O-] (stereo partly drawn) [Compound 67]				44		
CC(=O)O[C@@H]1C=CC(OC2/C=C(\C)CCC3(C(C)(O)C(=O)SCc4oc(=O)oc4C)CC(=O)N(C(C)c4nc(cs4)/C=C\C=C\C2=O)[S+]3[O-])O[C@H]1C (stereo partly drawn) [Compound 68]				50		
CC(=O)O[C@@H]1C=CC(OC2/C=C(\C)CCC3(C(C)(O)C(=O)SCc4oc(=O)oc4C)CC(=O)N(C(C)c4nc(cs4)/C=C\C=C\C2=O)[S+]3[O-])O[C@H]1C (stereo partly drawn) [Compound 69]						IC50 ([5]; HeLa S3, 72 hours, 37° C.): 3.2 nM
